Measurements reported in ChEMBL document CHEMBL3351452, “Chemical synthesis, cytotoxicity, selectivity and bioavailability of 5α-androstane-3α,17β-diol derivatives” (Bioorg Med Chem, 2014).

Columns and labels:
HL-60 = assay: Antiproliferative activity against human HL-60 cells assessed as reduction in cell growth after 24 hrs by MTS assay; assay type: functional, cell-based; details: HL-60, 24 h
MCF7 = assay: Antiproliferative activity against human MCF7 cells assessed as reduction in cell growth after 24 hrs by MTS assay; assay type: functional, cell-based; details: MCF7, 24 h
T47D = assay: Antiproliferative activity against human T47D cells assessed as reduction in cell growth after 24 hrs by MTS assay; assay type: functional, cell-based
LNCaP = assay: Antiproliferative activity against human LNCAP cells assessed as reduction in cell growth after 24 hrs by MTS assay; assay type: functional, cell-based
[1] = Plasma concentration in Sprague-Dawley rat at 2.3 mg/kg, sc measured at 3 hrs by LC/MS/MS analysis; assay type: ADME, organism-based; set-up: dose 2.3 mg/kg, route subcutaneous
[2] = Plasma concentration in Sprague-Dawley rat at 2.3 mg/kg, sc measured at 12 hrs by LC/MS/MS analysis; assay type: ADME, organism-based; set-up: dose 2.3 mg/kg, route subcutaneous
[3] = Cytotoxicity against mouse WEHI13 cells assessed as cell proliferation after 48 hrs by MTT assay; assay type: cell-based; details: WEHI13, 48 h

Row | Structure (SMILES) | IC50 (HL-60) [µM] | IC50 (MCF7) [µM] | IC50 (T47D) [µM] | IC50 (LNCaP) [µM] | concentration at 3 h [1] [ng/mL] | concentration at 12 h [2] [ng/mL] | IC50 [3] [µM]
1 | C#C[C@]1(O)CC[C@H]2[C@@H]3CC[C@H]4C[C@H](O)[C@@H](N5CCN(C(=O)[C@@H]6CCCN6C(=O)c6cccc7ccccc67)CC5)C[C@]4(C)[C@H]3CC[C@@]21C | 7 | 2.3 | 8 | 12 | – | – | –
2 | C[C@]12C[C@H](N3CCN(C(=O)[C@@H]4CCCN4C(=O)c4ccc5ccccc5c4)CC3)[C@@H](O)C[C@@H]1CC[C@@H]1[C@@H]2CC[C@]2(C)[C@@H](O)CC[C@@H]12 | 0.4 | 0.5 | 0.4 | 1.6 | 64.8 | 8.8 | > 10
3 | CO[C@H]1CC[C@H]2[C@@H]3CC[C@H]4C[C@H](O)[C@@H](N5CCN(C(=O)[C@@H]6CCCN6C(=O)c6ccc7ccccc7c6)CC5)C[C@]4(C)[C@H]3CC[C@]12C | 4.5 | 4.5 | 5 | 7 | 33.3 | 7.6 | –
4 | C[C@]12C[C@H](N3CCN(C(=O)[C@@H]4CCCN4C(=O)c4ccc5ccccc5n4)CC3)[C@@H](O)C[C@@H]1CC[C@@H]1[C@@H]2CC[C@]2(C)[C@@H](O)CC[C@@H]12 | 1.6 | 0.1 | 0.1 | 0.04 | 163 | 3.1 | –
5 | COc1cccc2c1C(=O)c1c(O)c3c(c(O)c1C2=O)C[C@@](O)(C(=O)CO)C[C@@H]3O[C@H]1C[C@H](N)[C@H](O)[C@H](C)O1 [DOXORUBICIN] | 0.7 | > 10 | 0.7 | 0.2 | – | – | 0.02
6 | C[C@]12C[C@H](N3CCN(C(=O)[C@@H]4CCCN4C(=O)c4ccc5ccccc5n4)CC3)[C@@H](O)C[C@@H]1CC[C@@H]1[C@@H]2CC[C@]2(C)C(=O)CC[C@@H]12 | 0.6 | 1 | 0.7 | 0.8 | 188 | 0.3 | –
7 | C[C@]12C[C@H](N3CCN(C(=O)[C@@H]4CCCN4C(=O)c4cccc5ccccc45)CC3)[C@@H](O)C[C@@H]1CC[C@@H]1[C@@H]2CC[C@]2(C)C(=O)CC[C@@H]12 | 8.5 | 8 | 7 | 10 | – | – | –
8 | C[C@]12C[C@H](N3CCN(C(=O)[C@@H]4CCCN4C(=O)c4cccc5ccccc45)CC3)[C@@H](O)C[C@@H]1CC[C@@H]1[C@@H]2CC[C@]2(C)[C@@H](O)CC[C@@H]12 | 3.7 | 4.8 | 5 | 0.3 | – | – | –
9 | C[C@]12C[C@H](N3CCN(C(=O)[C@@H]4CCCN4C(=O)c4cc5ccccc5cn4)CC3)[C@@H](O)C[C@@H]1CC[C@@H]1[C@@H]2CC[C@]2(C)[C@@H](O)CC[C@@H]12 | 1.4 | 0.1 | 0.2 | 0.07 | 123 | 2.7 | 3
10 | C[C@]12C[C@H](N3CCN(C(=O)[C@@H]4CCCN4C(=O)c4cc5ccccc5[n+]([O-])c4)CC3)[C@@H](O)C[C@@H]1CC[C@@H]1[C@@H]2CC[C@]2(C)[C@@H](O)CC[C@@H]12 | 0.8 | 0.9 | 1 | > 10 | 158 | 2.9 | –
11 | C[C@]12CC[C@@H](O)C[C@@H]1CC[C@@H]1[C@@H]2CC[C@]2(C)[C@@H](O)CC[C@@H]12 [ANDROSTANDIOL] | – | – | – | – | – | – | > 10
12 | C[C@]12C[C@H](N3CCN(C(=O)[C@@H]4CCCN4C(=O)C4CCCCC4)CC3)[C@@H](O)C[C@@H]1CC[C@@H]1[C@@H]2CC[C@]2(C)[C@@H](O)CC[C@@H]12 | – | – | – | – | – | – | 2.7
13 | C[C@]12C[C@H](N3CCN(C(=O)[C@@H]4CCCN4C(=O)c4ccc5ccccc5c4)CC3)[C@@H](O)C[C@@H]1CC[C@@H]1[C@@H]2CC[C@@]2(C)[C@H]1CC[C@]2(C)O | 4.7 | 1.2 | 2 | > 10 | 122 | 32 | –
14 | C[C@]12C[C@H](N3CCN(C(=O)[C@@H]4CCCN4C(=O)c4ccc5ncccc5c4)CC3)[C@@H](O)C[C@@H]1CC[C@@H]1[C@@H]2CC[C@]2(C)[C@@H](O)CC[C@@H]12 | 4.7 | 4.9 | 7 | > 10 | 194 | 1.3 | –
15 | C[C@]12C[C@H](N3CCN(C(=O)[C@@H]4CCCN4C(=O)c4cnc5ccccc5c4)CC3)[C@@H](O)C[C@@H]1CC[C@@H]1[C@@H]2CC[C@]2(C)[C@@H](O)CC[C@@H]12 | 4 | 1.2 | 7 | > 10 | 163 | 2.3 | –
16 | C#C[C@]1(O)CC[C@H]2[C@@H]3CC[C@H]4C[C@H](O)[C@@H](N5CCN(C(=O)[C@@H]6CCCN6C(=O)c6ccc7ccccc7c6)CC5)C[C@]4(C)[C@H]3CC[C@@]21C | 1.9 | 0.3 | 0.3 | 4.5 | 185 | 50.2 | 1.7
